Assay results as given in the supplement of paper PMC11451515.

Tested on: SEM cells
Test: cell viability relative to DMSO control; higher = less cytotoxic
Conditions: 48 h
In short: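 Library compounds in DMSO were pin-dosed into 1536-well plates (5 μl) holding NOMO1 or SEM (500 cells/well) or P12-Ichikawa (1000 cells/well) leukemia cells, across an 11-point threefold series of 47 μM to 0.79 nM. Each cell line had been adapted for at least four passages in each medium. CellTiter-Glo One luminescence was read after 48 h at 37°C. Viability is the per-plate percentage relative to DMSO wells, with cell-free wells as background.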

[1] = HPLM + 10% dialyzed FBS, 0.000781 µM
[2] = HPLM + 10% dialyzed FBS, 0.00234 µM
[3] = HPLM + 10% dialyzed FBS, 0.00702 µM
[4] = HPLM + 10% dialyzed FBS, 0.0211 µM
[5] = HPLM + 10% dialyzed FBS, 0.0632 µM
[6] = HPLM + 10% dialyzed FBS, 0.19 µM
[7] = HPLM + 10% dialyzed FBS, 0.569 µM
[8] = HPLM + 10% dialyzed FBS, 1.71 µM
[9] = HPLM + 10% dialyzed FBS, 5.12 µM
[10] = HPLM + 10% dialyzed FBS, 15.4 µM
[11] = HPLM + 10% dialyzed FBS, 46.1 µM
[12] = RPMI 5 mM glucose + 10% FBS, 0.000781 µM
[13] = RPMI 5 mM glucose + 10% FBS, 0.00234 µM
[14] = RPMI 5 mM glucose + 10% FBS, 0.00702 µM
[15] = RPMI 5 mM glucose + 10% FBS, 0.0211 µM
[16] = RPMI 5 mM glucose + 10% FBS, 0.0632 µM
[17] = RPMI 5 mM glucose + 10% FBS, 0.19 µM
[18] = RPMI 5 mM glucose + 10% FBS, 0.569 µM
[19] = RPMI 5 mM glucose + 10% FBS, 1.71 µM
[20] = RPMI 5 mM glucose + 10% FBS, 5.12 µM
[21] = RPMI 5 mM glucose + 10% FBS, 15.4 µM
[22] = RPMI 5 mM glucose + 10% FBS, 46.1 µM
[23] = RPMI 5 mM glucose + 10% dialyzed FBS, 0.000781 µM
[24] = RPMI 5 mM glucose + 10% dialyzed FBS, 0.00234 µM
[25] = RPMI 5 mM glucose + 10% dialyzed FBS, 0.00702 µM
[26] = RPMI 5 mM glucose + 10% dialyzed FBS, 0.0211 µM
[27] = RPMI 5 mM glucose + 10% dialyzed FBS, 0.0632 µM
[28] = RPMI 5 mM glucose + 10% dialyzed FBS, 0.19 µM
[29] = RPMI 5 mM glucose + 10% dialyzed FBS, 0.569 µM
[30] = RPMI 5 mM glucose + 10% dialyzed FBS, 1.71 µM
[31] = RPMI 5 mM glucose + 10% dialyzed FBS, 5.12 µM
[32] = RPMI 5 mM glucose + 10% dialyzed FBS, 15.4 µM
[33] = RPMI 5 mM glucose + 10% dialyzed FBS, 46.1 µM

| SMILES | cell viability [1] | cell viability [2] | cell viability [3] | cell viability [4] | cell viability [5] | cell viability [6] | cell viability [7] | cell viability [8] | cell viability [9] | cell viability [10] | cell viability [11] | cell viability [12] | cell viability [13] | cell viability [14] | cell viability [15] | cell viability [16] | cell viability [17] | cell viability [18] | cell viability [19] | cell viability [20] | cell viability [21] | cell viability [22] | cell viability [23] | cell viability [24] | cell viability [25] | cell viability [26] | cell viability [27] | cell viability [28] | cell viability [29] | cell viability [30] | cell viability [31] | cell viability [32] | cell viability [33] |
| --- | --- | --- | --- | --- | --- | --- | --- | --- | --- | --- | --- | --- | --- | --- | --- | --- | --- | --- | --- | --- | --- | --- | --- | --- | --- | --- | --- | --- | --- | --- | --- | --- | --- |
| COC(=O)Nc1ccc(-c2nc(N3CCOCC3)c3cnn(C4CCN(Cc5cccnc5)CC4)c3n2)cc1 | 86.4% | 98% | 99% | 92.5% | 93.5% | 57.9% | 46.6% | 50.9% | 21.4% | 10.6% | 7.36% | 119% | 98% | 85.5% | 99.9% | 75.4% | 54.2% | 33.3% | 35.9% | 4.31% | 2.26% | 3.9% | 125% | 128% | 112% | 105% | 89.9% | 67.8% | 43.7% | 40.3% | 6.29% | 3.11% | 4.53% |
| Nc1nc(Nc2ccc([S+](N)(=O)[O-])cc2)nn1C(=O)c1c(F)cccc1F | 104% | 111% | 97.8% | 133% | 104% | 113% | 123% | 116% | 64.1% | 32.1% | 5.68% | 100% | 107% | 113% | 110% | 114% | 101% | 100% | 109% | 76.5% | 34.7% | 6.53% | 88.9% | 108% | 114% | 115% | 110% | 122% | 111% | 123% | 64.8% | 34.5% | 4.33% |
| COC/1=C/[C@@H]2[C@@H]3CC4=C(C(=C(OC)C=C4)O)[C@]2(CCN3C)CC1=O | 116% | 121% | 130% | 122% | 133% | 139% | 135% | 119% | 128% | 115% | 129% |  |  |  |  |  |  |  |  |  |  |  | 106% | 128% | 121% | 116% | 135% | 139% | 146% | 127% | 122% | 137% | 125% |
| CN[C@H]1[C@H](O[C@@H]2[C@H](O[C@@H]3[C@@H](O)[C@@H](O)[C@@H](NC(=N)N)[C@@H](O)[C@H]3NC(=N)N)O[C@H](C)[C@@]2(O)C=O)O[C@@H](CO)[C@@H](O)[C@H]1O | 93.2% | 89.9% | 79.7% | 80.2% | 79.9% | 82.2% | 83.7% | 57% | 83.3% | 82.1% | 78.6% | 95.1% | 116% | 119% | 114% | 114% | 110% | 104% | 44.8% | 103% | 85.6% | 99.3% | 109% | 103% | 118% | 114% | 117% | 114% | 109% | 80.4% | 103% | 111% | 101% |
| CCNC(=O)Nc1ccc(-c2nc3c(c(N4CCOC[C@@H]4C)n2)CCN(C2COC2)C3)cc1 | 96.1% | 116% | 111% | 113% | 108% | 87.7% | 98.9% | 57.7% | 43.5% | 31.7% | 32.1% | 105% | 105% | 114% | 108% | 113% | 95.1% | 87.8% | 55.7% | 41.1% | 27% | 20.9% | 119% | 125% | 104% | 120% | 121% | 109% | 102% | 79.2% | 51.4% | 41% | 36.1% |
| CO[C@H]1/C=C/O[C@@]2(C)Oc3c(C)c(O)c4c(O)c(c(/C=N\N5CCN(C6CCCC6)CC5)c(O)c4c3C2=O)NC(=O)/C(C)=C\C=C\[C@H](C)[C@H](O)[C@@H](C)[C@@H](O)[C@@H](C)[C@H](OC(C)=O)[C@@H]1C | 78.4% | 70.3% | 63.7% | 62.1% | 45.6% | 15% | 6.95% | 3.02% | 1.55% | 1.63% | 1.24% | 39.3% | 42.6% | 34.7% | 33.5% | 29.1% | 9.34% | 4.87% | 2.56% | 1.35% | 1.05% | 0.91% | 58% | 63.5% | 60.5% | 47.5% | 50.4% | 19.8% | 8.21% | 2.82% | 1.68% | 1.26% | 1.06% |
| CN(c1nccc(=O)[nH]1)C1CCN(c2nc3ccccc3n2Cc2ccc(F)cc2)CC1 | 105% | 107% | 115% | 113% | 112% | 113% | 108% | 110% | 115% | 91% | 123% | 78.4% | 94.8% | 95% | 80% | 84.8% | 88.9% | 95.3% | 98.1% | 91.9% | 79.7% | 87.7% | 94.7% | 103% | 102% | 111% | 106% | 113% | 109% | 106% | 101% | 104% | 99.6% |
| O=C(O)[C@@H](c1ccc(OCc2ccc3ccccc3n2)cc1)C1CCCC1 | 116% | 124% | 122% | 114% | 123% | 45.5% | 125% | 114% | 43.4% | 113% | 95.6% |  |  |  |  |  |  |  |  |  |  |  | 109% | 151% | 120% | 127% | 148% | 52% | 129% | 124% | 19.4% | 114% | 83.1% |
| CCCC1=N[N](C)C2=C1\N=C(/NC2=O)C3=CC(=CC=C3OCC)[S+]([O-])(=O)N4CCN(C)CC4 | 44.2% | 88.3% | 87.9% | 94.3% | 74% | 88.4% | 79.8% | 80.8% | 87% | 46.3% | 2.85% | 46.9% | 108% | 97.7% | 85.9% | 66.6% | 79.7% | 74% | 78% | 86.9% | 46.2% | 32.2% | 46.1% | 94.2% | 88.5% | 87.4% | 61.7% | 81.2% | 89.9% | 102% | 88.1% | 61.9% | 4.25% |
| CN1C2=CC(=O)/C(=N/NC(N)=O)C=C2CC1S(=O)(=O)[O-].[Na+] (stereo not given) | 79.9% | 110% | 96.7% | 103% | 103% | 110% | 117% | 105% | 124% | 103% | 115% | 109% | 108% | 114% | 115% | 103% | 115% | 112% | 121% | 128% | 125% | 112% | 95.5% | 109% | 98.5% | 110% | 94.6% | 116% | 126% | 114% | 118% | 117% | 109% |
| O=C(O)CSCC(=O)NC1CCSC1=O (stereo not given) | 77.6% | 98.4% | 91.5% | 80.6% | 99.3% | 91.9% | 112% | 102% | 100% | 89.5% | 92.6% | 73.3% | 87.6% | 96.4% | 92.9% | 107% | 113% | 111% | 104% | 101% | 97% | 98.8% | 83.4% | 98.4% | 100% | 100% | 115% | 105% | 107% | 108% | 118% | 104% | 94.9% |
| CN1\N=N/C2=C(N=C[N]2C1=O)C(N)=O | 112% | 114% | 132% | 111% | 121% | 88.2% | 60.9% | 57.7% | 51.2% | 38.7% | 25.3% | 85.8% | 102% | 106% | 86.2% | 88.5% | 67.7% | 47.6% | 50.6% | 41.9% | 28.4% | 24.1% | 105% | 115% | 139% | 116% | 113% | 78.7% | 58.7% | 37.4% | 31.9% | 28.9% | 20.5% |
| O=C1CCC[C@@H]2[C@H]3CCC[N+]4([O-])CCC[C@@H](CN12)[C@@H]34 (stereo not given in full) | 61.8% | 68.2% | 84.1% | 86.2% | 96.2% | 94% | 89.4% | 92.1% | 71.9% | 27.1% | 78.6% | 84.7% | 87.4% | 93.9% | 94.7% | 89.1% | 101% | 96.6% | 99.5% | 71.5% | 18.8% | 86.8% | 89.7% | 68.5% | 82.2% | 97.9% | 85.4% | 96.6% | 102% | 81.4% | 91.1% | 24% | 88.7% |
| COc1cc(NC(=O)c2ccc(-c3ccc(Cl)cc3)o2)cc(OC)c1 | 73% | 94.6% | 93.6% | 106% | 98.5% | 114% | 116% | 107% | 107% | 94.3% | 107% | 77.7% | 90% | 103% | 104% | 107% | 96.8% | 94.2% | 86.4% | 102% | 105% | 98.9% | 81.2% | 96.2% | 95.9% | 102% | 105% | 95.4% | 96.4% | 89.7% | 99.8% | 109% | 90.1% |
